Measurements reported in article PMC11600510 (Journal of Chemical Information and Modeling, 2024).
“Also recorded” adds a separate entry of the source.

Columns and labels:
CYP2C19 = target: T1, CYP2C19 (Homo sapiens, UniProt P33261); test: Isozyme-specific CYP450 inhibition; format: in vitro ADME; conditions: probe fluorescent substrate (not named)
T1 construct: purchased Thermo Fisher Scientific; host or cells: Baculosomes
Procedure: (§1) For this, the activity of CYP1A2, CYP2A6, CYP2B6, CYP2C9, CYP2C19, CYP2D6, and CYP3A4 was assessed after the administration of CKP-25 at 1 μM to determine (a) the oxidative (CYP-mediated) metabolic stability profile in question and (b) the enzyme metabolizing isoforms responsible (the test system consists of recombinant human CYP450 and CYP450 reductase; cytochrome b5 may also be present). Herein, no concentration-dependent effects were reported. […] No product inhibition or mechanism-based inactivation of the CYP450 isoenzymes in question was obtained. Test-compounds with poor solubility can show artificially low CYP450 inhibition and thus, chemical entities with potential drug–drug interaction toxicities may be overlooked.
(§2) Human cytochrome P450 (CYP450) isoenzymes were expressed in Baculosomes obtained from Thermo Fisher Scientific (Waltham, MA, USA). Reagents were handled and prepared following the manufacturer’s guidelines. Compound CKP-25 was evaluated at a concentration of 1 μM according to our established standard operating procedures and protocols as described previously.[127],[128] The enzymatic activity of various CYP450 isoforms (CYP1A2, CYP2A6, CYP2B6, CYP2C9, CYP2C19, CYP2D6, and CYP3A4) was measured, considering the kinetic model for each isoform. The reactions were conducted in triplicate at 20 °C. NADP+ (10 mM in 100 mM potassium phosphate, pH 8.0) was converted to NADPH using a regeneration system containing glucose-6-phosphate (333 mM) and glucose-6-phosphate dehydrogenase (30 U/mL in 100 mM potassium phosphate, pH 8.0). Upon the addition of the fluorescent substrate, signal monitoring was performed immediately (within 2 min) using appropriate excitation and emission wavelengths, recorded by an Agilent BioTek Lionheart FX (Winooski, VT, USA). CYP450 inhibition (%) was calculated based on the reaction rates (fluorescence intensity changes per unit time). In total, n = 60 meaurements per minute were recorded over a 60 min period. [drawing 2] where X, the rate observed in the presence of a test-compound; A, the rate observed in the presence of negative (solvent, DMSO) control.

CYP2A6 = target: T2, CYP2A6 (Homo sapiens, UniProt P11509); test: Isozyme-specific CYP450 inhibition; format: in vitro ADME; conditions: recombinant human CYP2A6 with CYP450 reductase (Baculosomes), probe fluorescent substrate (not named)
T2 construct: purchased Thermo Fisher Scientific; host or cells: Baculosomes
T2 sequence (P11509 1-494): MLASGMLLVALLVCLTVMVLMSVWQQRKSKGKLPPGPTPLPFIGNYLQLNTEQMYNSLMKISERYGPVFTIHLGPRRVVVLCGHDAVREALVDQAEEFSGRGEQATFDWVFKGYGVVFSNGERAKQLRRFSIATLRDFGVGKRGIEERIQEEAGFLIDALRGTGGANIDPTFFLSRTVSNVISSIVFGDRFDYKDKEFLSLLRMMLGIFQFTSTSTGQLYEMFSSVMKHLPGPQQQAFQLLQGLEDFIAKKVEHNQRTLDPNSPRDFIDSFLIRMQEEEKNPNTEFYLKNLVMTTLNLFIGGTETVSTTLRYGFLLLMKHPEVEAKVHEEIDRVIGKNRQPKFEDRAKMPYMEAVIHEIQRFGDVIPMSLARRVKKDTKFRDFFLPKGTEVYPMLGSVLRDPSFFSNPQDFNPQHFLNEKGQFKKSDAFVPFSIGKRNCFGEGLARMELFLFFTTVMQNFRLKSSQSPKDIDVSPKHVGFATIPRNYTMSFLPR
Procedure: as §1, §2

CYP1A2 = target: T3, CYP1A2 (Homo sapiens, UniProt P05177); test: Isozyme-specific CYP450 inhibition; format: in vitro ADME; conditions: recombinant human CYP1A2 with CYP450 reductase (Baculosomes), probe fluorescent substrate (not named)
T3 construct: purchased Thermo Fisher Scientific; host or cells: Baculosomes
T3 sequence (P05177 2-516 limits assumed): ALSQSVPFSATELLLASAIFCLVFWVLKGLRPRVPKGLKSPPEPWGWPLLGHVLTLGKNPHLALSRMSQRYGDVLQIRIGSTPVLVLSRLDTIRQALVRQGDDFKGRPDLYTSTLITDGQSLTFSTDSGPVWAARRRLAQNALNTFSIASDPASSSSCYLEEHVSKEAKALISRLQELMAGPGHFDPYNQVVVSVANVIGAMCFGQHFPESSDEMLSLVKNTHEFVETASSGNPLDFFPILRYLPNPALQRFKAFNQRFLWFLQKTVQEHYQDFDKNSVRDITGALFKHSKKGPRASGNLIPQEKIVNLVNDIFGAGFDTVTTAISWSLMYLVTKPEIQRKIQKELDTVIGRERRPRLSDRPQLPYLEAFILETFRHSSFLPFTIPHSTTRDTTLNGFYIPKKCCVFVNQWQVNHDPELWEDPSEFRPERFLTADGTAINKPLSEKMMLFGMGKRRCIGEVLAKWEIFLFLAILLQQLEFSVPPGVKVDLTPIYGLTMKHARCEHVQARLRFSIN
Procedure: as §1, §2

CYP2C9 = target: T4, CYP2C9 (Homo sapiens, UniProt P11712); test: Isozyme-specific CYP450 inhibition; format: in vitro ADME; conditions: recombinant human CYP2C9 with CYP450 reductase (Baculosomes), probe fluorescent substrate (not named)
T4 construct: purchased Thermo Fisher Scientific; host or cells: Baculosomes
Procedure: as §1, §2

CYP2B6 = target: T5, CYP2B6 (Homo sapiens, UniProt P20813); test: Isozyme-specific CYP450 inhibition; format: in vitro ADME; conditions: recombinant human CYP2B6 with CYP450 reductase (Baculosomes), probe fluorescent substrate (not named)
T5 construct: purchased Thermo Fisher Scientific; host or cells: Baculosomes
T5 sequence (P20813 1-491): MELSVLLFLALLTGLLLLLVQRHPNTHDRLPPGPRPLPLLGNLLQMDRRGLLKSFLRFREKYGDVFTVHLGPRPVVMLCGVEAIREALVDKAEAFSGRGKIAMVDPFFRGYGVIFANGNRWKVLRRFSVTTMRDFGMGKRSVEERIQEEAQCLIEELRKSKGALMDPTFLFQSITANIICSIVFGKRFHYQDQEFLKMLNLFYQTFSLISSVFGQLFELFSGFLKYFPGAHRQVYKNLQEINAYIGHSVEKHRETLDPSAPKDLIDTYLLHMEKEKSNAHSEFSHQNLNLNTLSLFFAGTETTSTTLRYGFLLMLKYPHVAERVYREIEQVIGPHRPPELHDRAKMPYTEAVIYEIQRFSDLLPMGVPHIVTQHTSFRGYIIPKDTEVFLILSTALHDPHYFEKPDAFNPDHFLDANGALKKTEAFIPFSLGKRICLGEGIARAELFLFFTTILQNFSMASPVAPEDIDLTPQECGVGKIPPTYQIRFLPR
Procedure: as §1, §2

E. coli WP2 uvrA strain = test: Microbial mutagenicity assay (Ames test)

T4 sequence (P11712 whole entry): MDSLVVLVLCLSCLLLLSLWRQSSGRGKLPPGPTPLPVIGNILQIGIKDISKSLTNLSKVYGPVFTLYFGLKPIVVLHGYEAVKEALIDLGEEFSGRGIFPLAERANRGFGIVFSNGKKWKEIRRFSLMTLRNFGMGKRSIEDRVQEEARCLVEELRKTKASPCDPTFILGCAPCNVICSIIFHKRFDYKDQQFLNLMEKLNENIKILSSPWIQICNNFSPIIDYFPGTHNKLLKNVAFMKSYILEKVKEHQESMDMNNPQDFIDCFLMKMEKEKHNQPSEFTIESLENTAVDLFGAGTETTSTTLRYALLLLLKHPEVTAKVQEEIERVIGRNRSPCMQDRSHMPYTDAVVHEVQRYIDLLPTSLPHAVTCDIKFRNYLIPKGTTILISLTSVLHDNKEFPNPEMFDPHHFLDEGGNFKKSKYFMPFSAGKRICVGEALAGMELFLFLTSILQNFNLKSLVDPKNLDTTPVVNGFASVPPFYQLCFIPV
T1 sequence (P33261 whole entry): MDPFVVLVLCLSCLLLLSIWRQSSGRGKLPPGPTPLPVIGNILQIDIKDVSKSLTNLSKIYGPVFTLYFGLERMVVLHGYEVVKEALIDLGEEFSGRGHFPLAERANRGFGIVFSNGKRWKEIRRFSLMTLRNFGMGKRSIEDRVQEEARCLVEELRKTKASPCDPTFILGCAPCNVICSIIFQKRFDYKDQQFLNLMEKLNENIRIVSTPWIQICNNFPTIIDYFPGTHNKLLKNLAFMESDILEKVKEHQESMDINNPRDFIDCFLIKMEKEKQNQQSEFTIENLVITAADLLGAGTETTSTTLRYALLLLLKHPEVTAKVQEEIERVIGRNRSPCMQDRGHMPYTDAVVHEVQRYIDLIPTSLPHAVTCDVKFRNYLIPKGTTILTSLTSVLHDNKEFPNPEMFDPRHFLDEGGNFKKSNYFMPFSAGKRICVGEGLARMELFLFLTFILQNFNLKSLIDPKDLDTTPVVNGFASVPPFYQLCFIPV

`COc1cccc2c1ncn2Cc1ccc2ccccc2c1` [CKP-25, 4-Methoxy-1-(naphthalen-2-ylmethyl)-1H-benzo[d]imidazole] showed an inhibition at 60 min, 1 µM (CYP2C19) of 20%, an inhibition at 60 min, 1 µM (CYP2A6) of 6% and an inhibition at 60 min, 1 µM (CYP1A2) of 0%. For the same molecule, the inhibition at 60 min, 1 µM (CYP2C9) was 11%, the inhibition at 60 min, 1 µM (CYP2B6) was 0% and the mean revertants (E. coli WP2 uvrA strain; 2.5 μg/plate, +S9) was 13. For the same molecule, the mean revertants (E. coli WP2 uvrA strain; 2.5 μg/plate, –S9) was 7.5, the mean revertants (E. coli WP2 uvrA strain; 25 μg/plate, +S9) was 19 and the mean revertants (E. coli WP2 uvrA strain; 25 μg/plate, –S9) was 12.5. It also gave a mean revertants (E. coli WP2 uvrA strain; 50 μg/plate, +S9) of 15, a mean revertants (E. coli WP2 uvrA strain; 50 μg/plate, –S9) of 13 and a mean revertants (E. coli WP2 uvrA strain; 100 μg/plate, +S9) of 13. For the same molecule, the mean revertants (E. coli WP2 uvrA strain; 100 μg/plate, –S9) was 11.5, the mean revertants (E. coli WP2 uvrA strain; 200 μg/plate, +S9) was 16 and the mean revertants (E. coli WP2 uvrA strain; 200 μg/plate, –S9) was 5.5. For the same molecule, the “mutagenic activity (in words)” value (E. coli WP2 uvrA strain; 12.5 to 200 μg/plate, with and without S9-mix) was “does not elicit mutagenic effect; also recorded: does not exhibit mutagenic activity”.
